Common to all, as to format: cell-based
One series has as its system MCF7 cells. Put plainly: Cell Titer-Glo 3D cell viability assay, 48 h, MCF7. Here is the method:
(§1) Cell Culture: Cell viability was assessed using the MCF7 and MCF10A cell lines. Cells were maintained in relevant media throughout the study, in an incubator set to 37°C and 5% CO2, with media changes every 2–3 days. […] Compound plate preparation: […] Plates were sealed and stored at −4°C prior to use. Viability Assay: […] Plates were incubated for 48 h in a humidified incubator set to 37°C and 5% CO2. […] Cat #G9682). Plates were centrifuged briefly and incubated protected from light for 30 min at 30°C. Luminescence signal was measured using a CLARIOstar Plus microplate reader (BMG Labtech). Data Analysis: Raw relative luminescence unit (RLU) data were de-randomised prior to background subtraction. Viability was determined as a percentage of vehicle control (DMSO only). % Viability = ((Sample RLU—Mean Positive Control) ÷ (Mean Negative Control—Mean Positive Control)) × 100.
(ATP-based viability assays read luminescence as a measure of living cells.)

The next series deals with MCF10A cells. Put plainly: Cell Titer-Glo 3D cell viability assay, 48 h, MCF10A. Here is the method:
as §1

Assay in series [1]: as above
As to conditions: human, MCF10A cells, MCF10A, 48 h, % of vehicle control. Here is the method: as §1

The mark [2] stands for this setting: Homo sapiens, MCF7; read-out: MCF7 IC50 Reached.
[3] abbreviates: Homo sapiens, MCF-10A; read-out: MCF10 IC50 Reached.
Setting [4] is: Homo sapiens, MCF-10A; MCF10A, 48 h viability; read-out: IC50.

Molecules are shown by their SMILES. Read-outs that look alike come from different tables or passages of the source.

One may read the IC50 as the point on the concentration scale where inhibition reaches its midpoint. As usually defined, the viability is the share of living cells, or the viability signal relative to a control. Low values mean a greater loss of cells, high ones better survival.

For the compound `Cc1cc([C@@H](C)Nc2ccccc2C(=O)O)c2nc(N3CCOCC3)cc(=O)n2c1` [AZD 6482], the IC50 with MCF7 cells (setting [2]) and in the series on MCF10A cells (setting [3]) was above 2500 nM each time. Further, the “IC50 (in words)” value in the series on MCF7 cells (MCF7, up to […]) is reported as “did not reach IC50 values”; in the series with MCF10A cells (MCF10A, up to […]), “did not reach IC50 values”.

As to `CC[C@@H]1C(=O)N(C)c2cnc(Nc3ccc(C(=O)NC4CCN(C)CC4)cc3OC)nc2N1C1CCCC1` [BI 2536], the concentration for half-maximal inhibition (IC50) in the series with MCF7 cells (Homo sapiens, MCF7, 48 h) is below 100 nM; in the series with MCF7 cells (Homo sapiens, MCF7, read-out: MCF7 IC50 Reached) it was below 2500 nM; with MCF10A cells (Homo sapiens, MCF-10A, 48 h) it was around 1000 nM; with MCF10A cells (Homo sapiens, MCF-10A, read-out: MCF10 IC50 Reached) it was below 2500 nM. Besides, the viability at 48 h, […] was found to be 92.4% in series [1] (0.0025 uM), 67.7% in series [1] (0.025 uM), 72.3% in series [1] (0.25 uM) and 33.9% in series [1] (2.5 uM).

With `Nc1ccn([C@@H]2O[C@H](CO)[C@@H](O)[C@@H]2O)c(=O)n1` [Cytarabine], the IC50 with MCF7 cells (setting [2]) and in the series on MCF10A cells (setting [3]) was above 2500 nM in each case.

For `Nc1ccn([C@@H]2O[C@H](CO)[C@@H](O)C2(F)F)c(=O)n1` [Gemcitabine], the IC50 in the series on MCF7 cells (setting [2]) was above 2500 nM; with MCF10A cells (setting [4]), below 250 nM; in the series with MCF10A cells (setting [3]) it was below 2500 nM.

As to `Nc1nc2[nH]cc(CCc3ccc(C(=O)N[C@@H](CCC(=O)O)C(=O)O)cc3)c2c(=O)[nH]1` [Pemetrexed], the half-inhibitory concentration (IC50) in the series on MCF7 cells (setting [2]) and in the series with MCF10A cells (setting [3]) was above 2500 nM each time. Moreover, the “IC50 (in words)” value is given as “did not reach IC50 values” with MCF7 cells (MCF7, up to […]) and “did not reach IC50 values” with MCF10A cells (MCF10A, up to […]).

As to `NS(=O)(=O)OC[C@@H]1C[C@@H](n2ccc3c(N[C@H]4CCc5ccccc54)ncnc32)C[C@@H]1O` [Pevonedistat], the IC50 with MCF7 cells (setting [2]) is below 2500 nM; in the series on MCF7 cells (Homo sapiens; MCF7, 48 h viability; read-out: IC50), below 100 nM; with MCF10A cells (setting [4]) it was above 2500 nM; with MCF10A cells (setting [3]) it was above 2500 nM.
